In US6720184B1, “Method of altering sphingolipid metabolism and detecting fumonisin ingestion and contamination” (Emory University, priority 1991, dated 2004):
Read-outs that look alike come from different tables or passages of the source.

Assays:
[1] = reference 13; cited from earlier work
[2] = system: serine palmitoyltransferase; experiment: serine palmitoyltransferase in disrupted cells after treatment of hepatocytes; format: cell-based, rat; settings: hepatocytes treated with 2.5 μM
[3] = system: serine palmitoyltransferase; experiment: in vitro assay of serine palmitoyltransferase, rat liver microsomes; format: biochemical
Protocol: In vitro assays of serine palmitoyltransferase and ceramide synthase. A microsomal fraction was isolated from rat liver and assayed for serine palmitoyltransferase, as is known in the art as described in (24,29), and ceramide synthase, as is known in the art as described in (30), in the presence of varying concentrations of fumonisin B1. […] The reaction was initiated by adding palmitoyl-CoA and, after incubation at 37° C. for 15 min, the products were extracted, resolved by TLC, and quantitated as described above. Background counts were subtracted using data from identical assays that omitted palmitoyl-CoA.

[4] = system: rat hepatocytes; experiment: mass measurements of phospholipids, total sphingolipids and free long-chain bases in hepatocytes; format: cell-based; settings: for Mass Phosphatidylcholine / Mass Phosphatidylethanolamine / Mass Phosphatidylserine / Mass Total sphingolipids: 16 h
Protocol: Mass measurements of the long-chain bases were conducted by HPLC, as is known in the art as previously described in (28), with C20-sphinganine as an internal standard. To quantitate total sphingolipids, the extracts were acid hydrolyzed before preparing the samples for HPLC and corrected, if necessary, for any losses during hydrolysis or extraction by spiking replicate samples with a known amount of ceramide or sphingomyelin.

[5] = system: rat hepatocytes; experiment: hepatocyte viability (trypan blue exclusion); format: cell-based; settings: 1 μM, 4 d
Protocol: Hepatocyte culture—Hepatocytes were prepared by a collagenase perfusion method, as known in the art as described in (22), from male Sprague-Dawley rats (125 to 200 g) fed a chow diet (Ralston Purina, St. Louis, Mo.) ad libitum. The hepatocytes were isolated using carefully aseptic procedures and plated in 60 mm tissue culture dishes coated with collagen for short term (<24 h) or with Matrigel for longer term (3 to 4 d) experiments. After plating for 4 h, the medium was changed to 2 ml of DMEM (with 3.7 g/L NaHCO3) containing 10 μg/ml f insulin, 6.1 g/L of penicillin, 10 g/L of streptomycin sulfate, and varying concentrations of fumonisins (added from a 1 mM solution in Delbecco's phosphate buffered saline). The cells were maintained in a tissue culture incubator at 37° C. and an atmosphere of 5% CO2; the medium was changed every 24 h.

[6] = reference 12; cited from earlier work
[7] = system: serum sphingolipids; experiment: free long-chain bases in sera of ponies fed fumonisin-contaminated feed; format: in vivo, pony; settings: for serum sphinganine / serum sphingosine: pony 341, 22 ppm
Protocol: Materials—Corn screenings were ground in a Romer Mill (Romer Labs, Chesterfield, Mo.) and mixed thoroughly. Samples were taken from each lot and analyzed for fumonisins by high-performance liquid chromatography (HPLC) and thin-layer chromatography as is known in the art as previously described in (15). […] Using the mean fumonisin B1 level, individual rations were prepared daily by adding the corn screenings to pellets (NADC Horse Ration, Code 560, Purina Mills, St. Louis, Mo.) and molasses (Promolas Easy Mixer supreme, Pacific Molasses Co., San Francisco, Calif.) to yield the fumonisin concentrations cited in the text. In general, the ration contained 60% pellets, 10% molasses, and 30% corn screenings. The control diet consisted of pellets plus molasses.
Feeding protocols—Clinically normal ponies of varying age and sex were conditioned on the control diet for 21 days prior to the trial. Horse 341 was a 6 year old gelding (173-193 Kg), 299 was a 12 year old mare (205-215 Kg), 164 was a 12 year old mare (206-290 Kg) and 166 was a 16 year old mare (143-164 Kg). During the conditioning period and throughout the trial, all ponies received alfalfa hay by free choice. The test groups were fed varying levels of fumonisin (15 to 44 ppm) for varying lengths of time.
Analysis of serum long-chain bases—Blood was drawn approximately twice a week, centrifuged to obtain serum, and aliquots were frozen for analyses of free sphingosine and sphinganine by HPLC as is known in the art as described in (28). To quantitate total sphingolipids in some samples, the extracts were acid hydrolyzed before preparing the samples for HPLC.

[8] = reference 14; cited from earlier work
[9] = system: ceramide synthase; experiment: conversion of [3H]sphingosine to [3H]ceramide by intact hepatocytes; format: cell-based, rat; settings: 1 μM for 1 h before [3H]sphingosine (FIG. 4D)
Protocol: To measure the relative activity of ceramide synthase in intact hepatocytes, the cells were incubated with 1 μM fumonisin B1 for 1 h, then 1 μCi of [^3H]sphingosine was added and the cells were incubated for varying times. The [^3H]sphingosine was freshly purified because it decomposes rapidly to a material with an Rf similar to that of ceramides on TLC. The [^3H]sphingosine was diluted to 1 Ci/mmol and applied to a small silica gel column (Unisil, Clarkston, Ill.) in chloroform. The column was washed with 10-column volumes of chloroform, the [^3H]sphingosine was eluted with methanol and the purity confirmed by TLC. The [^3H]sphingosine was transferred to a small test tube, the solvent was evaporated under N2, a small volume of culture medium was added immediately, and the tube was sonicated for a few minutes using a bath-type sonicator. Aliquots of this solution were added to the cells, and at the end or the specified incubation period the cells were scraped from the dish, 25 μg of unlabelled ceramide carrier was added, and the lipids were extracted as described above. The [^3H]ceramides were separated from [^3H]sphingosine using silica gel H TLC plates developed with diethyl ether:methanol (99:1, v/v), visualized with I2 vapor, and the amount of radiolabel was determined by scintillation counting.

[10] = system: rat hepatocytes; experiment: radiolabelling of phospholipids from [14C]serine in hepatocytes; format: cell-based; settings: 16 h with [14C]serine
Protocol: Other methods—The incorporation of radiolabel into other lipids was determined by separating the phospholipids by TLC using silica gel H plates developed with CHCl,:methanol:formic acid:water (56:30:2:1, v/v/v/v), visualization of the spots and standards with I2 vapor, and quantitation by scintillation counting. The amount of label in fatty acids was estimated using samples that had been incubated with 0.1 M KOH in methanol for 1 h at 37° C. and separated using the ceramide TLC system because the methyl esters migrate near the solvent front under these conditions.

[11] = system: de novo sphingolipid biosynthesis; experiment: [14C]sphingosine biosynthesis by hepatocytes isolated from rats given fumonisin B1 by gavage; format: in vivo, rat; settings: 5 mg/200 g body weight by gavage for 2 days
[12] = pony #212, initially 44 ppm, by 7 days

## CCCC[C@@H](C)[C@@H](OC(=O)C[C@@H](CC(=O)O)C(=O)O)[C@H](C[C@@H](C)C[C@H](O)CCCC[C@@H](O)C[C@H](O)[C@H](C)N)OC(=O)C[C@@H](CC(=O)O)C(=O)O [fumonisin B1]
[1]
  disease caused: porcine pulmonary edema
[2]
  inhibition of serine palmitoyltransferase in disrupted cells: no inhibition
  serine palmitoyltransferase activity in disrupted cells: 7.7±0.2 pmol/min per mg of cellular protein
[3]; 25 μM
  effect on activity of serine palmitoyltransferase in vitro: did not reduce
[3]; in the presence of 25 μM
  activity of serine palmitoyltransferase in vitro: 88±3 pmol 3-ketosphinganine formed/min/mg of microsomal protein
[4]; 1 μM
  Mass Phosphatidylcholine: 105 ± 1.8 nmol/mg protein
  Mass Phosphatidylethanolamine: 44.9 ± 1.4 nmol/mg protein
  Mass Phosphatidylserine: 15.5 ± 2.6 nmol/mg protein
  Mass Total sphingolipids: 6.7 ± 0.3 nmol/mg protein
[4]; 1 μM, 4 d
  fold increase of sphinganine versus control: 110 fold
  free sphingosine: 52±1 pmol/dish
  mass of free sphinganine: 1499±18 pmol/dish
[4]; 1 μM, 4 d, cells on Matrigel
  level of total sphingolipids: 2.1±0.1 nmol/dish
  reduction of level of total sphingolipids: about half
[4]; 10 μM
  Mass Phosphatidylcholine: 112 ± 3.4 nmol/mg protein
  Mass Phosphatidylethanolamine: 44.4 ± 0.9 nmol/mg protein
  Mass Phosphatidylserine: 12.3 ± 1.9 nmol/mg protein
  Mass Total sphingolipids: 6.5 ± 0.7 nmol/mg protein
[4]; within the first 2 h (FIG. 4B)
  amount of free sphingosine: only a small reduction
[5]
  number of viable cells: no decrease
[6]
  disease caused: equine leucoencephalomalacia
[7]; Pony #164, feed 44 ppm, day 2
  Ratio Sa/So: 0.60
  Sphinganine, free, serum: 70.2 ± 4.2 pmol/mL
  Sphingosine, free, serum: 117 ± 7 pmol/mL
[7]; Pony #164, feed 44 ppm, day 7
  Ratio Sa/So: 1.67
  Sphinganine, free, serum: 253 ± 22 pmol/mL
  Sphingosine, free, serum: 152 ± 13 pmol/mL
[7]; Pony #164, feed 44 ppm, day 10
  Ratio Sa/So: 1.25
  Sphinganine, free, serum: 283 ± 18 pmol/mL
  Sphingosine, free, serum: 226 ± 20 pmol/mL
[7]; Pony #166, feed 44 ppm, day 2
  Ratio Sa/So: 0.87
  Sphinganine, free, serum: 37.2 ± 0.2 pmol/mL
  Sphingosine, free, serum: 43 ± 6 pmol/mL
[7]; Pony #166, feed 44 ppm, day 7
  Ratio Sa/So: 0.95
  Sphinganine, free, serum: 62 ± 8 pmol/mL
  Sphingosine, free, serum: 66 ± 16 pmol/mL
[7]; Pony #166, feed 44 ppm, day 10
  Ratio Sa/So: 1.92
  Sphinganine, free, serum: 179 ± 8 pmol/mL
  Sphingosine, free, serum: 92 ± 4 pmol/mL
[7]; Pony #166, feed 44 ppm, day 13
  Ratio Sa/So: 1.72
  Sphinganine, free, serum: 174 ± 18 pmol/mL
  Sphingosine, free, serum: 100 ± 8 pmol/mL
[7]; pony 164, 44 ppm, day 2
  increase in serum sphinganine versus level immediately prior to feeding: 6 fold
  ratio of sphinganine to sphingosine versus pre-feeding: doubled
[7]; pony 164, 44 ppm, day 7
  increase in serum sphinganine versus initial level: 22 fold
  serum sphingosine versus initial level: 3.6 fold
[7]; pony 166, 44 ppm, day 2
  increase in serum sphinganine: 2.7 fold
[7]; pony 166, 44 ppm, day 10
  elevation in serum sphinganine: 13 fold
  elevation in serum sphingosine: 2 fold
[7]; day 231
  serum sphinganine: 256 pmol/mL
  serum sphingosine: 163 pmol/mL
[7]; day 235
  serum sphinganine: 532 pmol/mL
  serum sphingosine: 418 pmol/mL
[7]; pony 341, reintroduction of 22 ppm on day 182
  sphinganine to sphingosine ratio: > 1.5
[7]; [12]
  further increase of serum sphingosine versus day 2: 2 fold
  serum sphinganine versus level at day 2: 6.7 fold
  sphinganine exceeding level of sphingosine: 1.9 fold
[7]; pony #212, initially 44 ppm, within 2 days
  serum sphingosine level: 147 ± 5 pmol
[7]; pony #341, 15 ppm, first 130 days
  ratio of sphinganine to sphingosine: fairly consistent elevation over the initial value
[8]
  tumor promotion: promotion of liver tumors
[9]
  [3H]sphingosine conversion to ceramides: Inhibition
[10]; 1 μM
  Radiolabelling Phosphatidylcholine: 2640 ± 264 cm/mg protein × 10^−3
  Radiolabelling Phosphatidylethanolamine: 163 ± 4.4 cm/mg protein × 10^−3
  Radiolabelling Phosphatidylserine: 48.8 ± 2.9 cm/mg protein × 10^−3
[10]; 10 μM
  Radiolabelling Phosphatidylcholine: 2740 ± 196 cm/mg protein × 10^−3
  Radiolabelling Phosphatidylethanolamine: 153 ± 10 cm/mg protein × 10^−3
  Radiolabelling Phosphatidylserine: 52.3 ± 3.6 cm/mg protein × 10^−3
[11]
  ratio of free [14C]sphingosine to [14C]sphinganine: 0.5±0.1
